From patent publication US20050034187A1, “Modified tet-inducible system for regulation of gene expression in plants” (priority 2000, published 2005)

Legend:
[1] = tested on: wild type tet Receptor and TripleX-driven GUS gene (pAC489/pAC499 double transformants); experiment: Seed germination test: induction of GUS gene in seedlings; type: in vivo, tobacco; conditions: concentration curve, FIG. 19
[2] = tested on: tet-inducible luciferase cassettes with (OCS)3MAS/nTR; experiment: Leaf disk induction assay, luciferase; type: cell-based, tobacco; conditions: for maximum magnitude of induction (luciferase): FIGS. 14 and 15; for highest induction in some lines (luciferase) / average induction of the reporter (luciferase): doxycycline 5 mg/l
Description: FIG. 9—Doxycycline-Mediated Induction of Expression of Luciferase from (OCS)3triplexmin Promoter in Plants is Stronger than TripleX. This experiment was performed in order to test the performance of OCS elements-modified TripleX promoter on the whole plant level. Transgenic tobacco plants carrying (OCS)3MAS/nTR, NPTII, and either of (OCS)3TripleXmin/LUC or TripleX/LUC cassettes were tested in leaf disk induction assays: 5-10 mm leaf disks were excised from plants and put into six- or twelve-well plates with liquid MS medium and with or without Doxy 5 mg/l at 5 mg/l. Luciferase assays were performed with the tissues 5 days later. Each bar represents one sample; numbers above the bars represent magnitude of induction.
FIG. 10—Doxycycline-Mediated Induction of Expression of Luci erase from (OCS)3triplexmin Promoter in Plants is Stronger than TripleX. […] 5-10 mm leaf disks and pieces of roots were excised from plants and put into six- or twelve-well plates with liquid MS medium and with or without Doxy 5 mg/l at 5 mg/l. Luciferase assays were performed with the tissues 5 days later. Each bar represents an average of three samples; numbers above the bars represent magnitude of induction.
FIG. 13—Doxycycline-Mediated Induction of Expression of Luciferase in Inducible Cassettes With or Without One or More MAR Elements. This experiment was performed in order to test the effect of placing inducible luciferase gene between one or more MAR elements. Tobacco plants carrying TripleX/LUC cassette placed between one or more MAR elements, (OCS)3MAS/nTR and NPTII genes (pACAG073 and pACAG081) as well as the reference cassette without one or more MAR elements (pACAG085) were used as donors of 5-10 mm leaf disks which were cultivated in six- or twelve-well plates with liquid MS medium with or without doxycycline 5 mg/l for five days. Samples were assayed for luciferase activity. Each bar represents one sample; numbers above the bars represent magnitude of induction.
FIG. 14—Doxycycline-Mediated Induction of Luciferase in Leaves Carrying Inducible Cassettes With or Without One or More MAR Elements. This experiment was performed in order to test the effect of placing inducible luciferase gene between one or more MAR elements. […] 5-10 mm leaf disks and pieces of roots were excised from plants and put into six- or twelve-well plates with liquid MS medium and with or without Doxy 5 mg/l at 5 mg/l. Luciferase assays were performed with the tissues 5 days later. Each bar represents an average of three samples; numbers above the bars represent magnitude of induction.
Evaluation of tet inducible system in plant tissues. 5-10 mm leaf disks were excised from plants and put into six- or twelve-well plates with liquid MS medium and with or without a tet analog at 5 mg/l. When transgenic plants carried cassettes for induction of herbicide resistance, the medium was supplemented with PURSUIT® at concentration of 1 μM or higher. These plates were cultivated in dark on shaker at 90 rpm for 5 days (three weeks for analysis of induction of herbicide resistance) and then used in assays or evaluated visually. Another test was designed for evaluation of inducible herbicide resistance. In this test leaf disks were placed on MS agar supplemented with. 1 mg/l of BAP and PURSUIT® at concentration of 1 μM or higher either alone or with a tet analog at 5 mg/l. Three weeks later the induction of regeneration from these disks was evaluated.

Structure (SMILES): C[C@H]1c2cccc(O)c2C(=O)C2=C(O)[C@]3(O)C(=O)C(C(N)=O)=C(O)[C@@H](N(C)C)[C@@H]3[C@@H](O)[C@@H]21 [doxycycline]
- threshold concentration at which noticeable induction occurred [1]: 0.1 mg/L
- maximum magnitude of induction (luciferase) ([2]; cassettes carrying at least one MAR element, Doxy 5 mg/l): 50 fold
- maximum magnitude of induction (luciferase) ([2]; cassettes without MAR element, Doxy 5 mg/l): 80 fold
- maximum induction (luciferase) ([2]; pACAG085 (TripleX/LUC), Doxy 5 mg/l, leaf disks, FIG. 10): 83 fold
- highest induction in some lines (luciferase) ([2]; pACAG113 and pACAG085 plants, FIG. 9): 100 fold
- average induction of the reporter (luciferase) ([2]; pACAG113 and pACAG085 plants, leaf disks, FIG. 9): 30 to 40 fold
- magnitude of induction for several lines (luciferase) ([2]; pACAG113 cassette ((OCS)3TripleXmin/LUC), Doxy 5 mg/l, leaf disks, FIG. 10): higher than 100 fold
- average induction of the reporter (luciferase) ([2]; the other three cassettes with or without MAR, FIG. 13): 30 to 40 fold
- highest induction in some lines (luciferase) ([2]; the other three cassettes, FIG. 13): 100 fold
